Experiment: Pharmacokinetic studies in the guinea pig (1 mg/kg IV, 10 mg/kg oral)
Format: in vivo
Description: Pharmacokinetic studies in the guinea pig were run using 1 mg/kg IV dosing (20% DMA, 40% TEG, 40% water) and 10 mg/kg oral dosing (2% Tween-80, 98% HPMC (1% water)).

bioavailability (in vivo, 10 mg/kg oral vs 1 mg/kg IV): 184%
AUC0-inf (oral, 10 mg/kg): 14891 ng·h/mL
AUC0-last (oral, 10 mg/kg): 8231 ng·h/mL
AUCExtra (oral, 10 mg/kg): 43.93%
Cmax (oral, 10 mg/kg): 1018 ng/mL
MRT0-last (oral, 10 mg/kg): 5.56 h
Tmax (oral, 10 mg/kg): 3 h
t1/2 (oral, 10 mg/kg): 6.0 h
DNAUC (0-inf) (oral, 10 mg/kg, dose-normalised AUC): 823.1
Rsq (oral, 10 mg/kg, fit of terminal phase): 0.91
SMILES: CC(=O)N1CCN(c2ccc(CO[C@H]3CO[C@](Cn4ccnc4)(c4ccc(Cl)cc4Cl)OC3)cc2)CC1 [drawing 113]

Source: US20160244436A1, “NOVEL FUNCTIONALIZED 5-(PHENOXYMETHYL)-1,3-DIOXANE ANALOGS EXHIBITING CYTOCHROME P450 INHIBITION AND THEIR METHOD OF USE” (CORTENDO AB (PUBL), priority 2013, published 2016)
